Reference: PMC10698726 (Molecular Pharmaceutics, 2023)
Read-outs that look alike come from different tables or passages of the source.

How the values were obtained:
OCT2 = target: T1, OCT2 (Homo sapiens, UniProt O15244); assay: Inhibition of model substrate uptake in OCT2-overexpressing HEK293 cells; details: for IC50: IC50, OCT2, Table S5, 2 μM ASP+ as model substrate; for IC50 / inhibition at 5 min, 20 μM / (S,S)-Ethambutol inhibition [%] / ASP+ inhibition [%] / N-Ethyllidocaine inhibition [%]: 5 min; for inhibition at 5 min, 20 μM / (S,S)-Ethambutol inhibition [%] / ASP+ inhibition [%] / N-Ethyllidocaine inhibition [%]: OCT2, 20 μM inhibitor
T1 sequence (O15244 1-555): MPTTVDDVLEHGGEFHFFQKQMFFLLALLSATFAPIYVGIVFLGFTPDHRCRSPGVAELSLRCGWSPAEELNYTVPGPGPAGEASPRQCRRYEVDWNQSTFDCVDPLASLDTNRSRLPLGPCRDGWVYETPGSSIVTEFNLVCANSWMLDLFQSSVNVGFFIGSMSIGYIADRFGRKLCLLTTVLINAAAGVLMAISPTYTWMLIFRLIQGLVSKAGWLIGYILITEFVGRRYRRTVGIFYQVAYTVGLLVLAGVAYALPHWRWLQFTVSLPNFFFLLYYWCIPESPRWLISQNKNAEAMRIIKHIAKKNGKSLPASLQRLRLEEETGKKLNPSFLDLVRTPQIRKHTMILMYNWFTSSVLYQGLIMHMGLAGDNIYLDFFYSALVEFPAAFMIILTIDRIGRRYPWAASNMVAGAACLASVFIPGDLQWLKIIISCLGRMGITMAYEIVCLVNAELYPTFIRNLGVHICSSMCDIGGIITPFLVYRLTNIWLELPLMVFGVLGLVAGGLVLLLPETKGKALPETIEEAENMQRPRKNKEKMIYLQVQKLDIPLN

OCT3 = target: T2, OCT3 (Homo sapiens, UniProt O75751); assay: Inhibition of model substrate uptake in OCT3-overexpressing HEK293 cells; assay type: cell-based; details: for (S)-Zolmitriptan inhibition [%] / (S,S)-Ethambutol inhibition [%] / ASP+ inhibition [%]: OCT3
T2 construct: expressed in transfected cells; host or cells: HEK293
T2 sequence (O75751 1-556): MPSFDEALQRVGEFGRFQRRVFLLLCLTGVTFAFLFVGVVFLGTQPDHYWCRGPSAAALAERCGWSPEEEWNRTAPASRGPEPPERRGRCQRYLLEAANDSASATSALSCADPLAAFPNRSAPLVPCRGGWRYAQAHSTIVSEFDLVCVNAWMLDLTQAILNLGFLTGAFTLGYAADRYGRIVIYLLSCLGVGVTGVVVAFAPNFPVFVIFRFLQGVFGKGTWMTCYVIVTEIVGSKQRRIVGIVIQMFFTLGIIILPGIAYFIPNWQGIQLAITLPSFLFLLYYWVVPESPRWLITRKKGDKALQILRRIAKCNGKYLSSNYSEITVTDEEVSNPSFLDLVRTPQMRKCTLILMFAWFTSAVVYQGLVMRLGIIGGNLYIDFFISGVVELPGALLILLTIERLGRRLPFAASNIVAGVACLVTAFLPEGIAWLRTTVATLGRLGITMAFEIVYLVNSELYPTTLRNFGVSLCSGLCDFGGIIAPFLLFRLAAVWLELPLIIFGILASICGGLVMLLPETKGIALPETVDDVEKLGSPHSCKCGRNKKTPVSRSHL
Procedure, shortened: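 Transporter-overexpressing HEK293 cells were incubated 5 min in HBSS+ with 2 μM model substrate, with or without 20 μM inhibitor or increasing inhibitor concentrations. Uptake was read as ASP^+ fluorescence or by LC–MS/MS, with empty-vector uptake subtracted. IC50 came from a Hill fit of activity versus log concentration.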

OCT1 = target: T3, OCT1 (Homo sapiens, UniProt O15245); assay: Inhibition of model substrate uptake in OCT1-overexpressing HEK293 cells; assay type: cell-based; design: expressed in transfected cells; host or cells: HEK293; details: for IC50: 2 μM ASP+ or ethambutol as model substrate, read-out: IC50
T3 sequence (O15245 1-554): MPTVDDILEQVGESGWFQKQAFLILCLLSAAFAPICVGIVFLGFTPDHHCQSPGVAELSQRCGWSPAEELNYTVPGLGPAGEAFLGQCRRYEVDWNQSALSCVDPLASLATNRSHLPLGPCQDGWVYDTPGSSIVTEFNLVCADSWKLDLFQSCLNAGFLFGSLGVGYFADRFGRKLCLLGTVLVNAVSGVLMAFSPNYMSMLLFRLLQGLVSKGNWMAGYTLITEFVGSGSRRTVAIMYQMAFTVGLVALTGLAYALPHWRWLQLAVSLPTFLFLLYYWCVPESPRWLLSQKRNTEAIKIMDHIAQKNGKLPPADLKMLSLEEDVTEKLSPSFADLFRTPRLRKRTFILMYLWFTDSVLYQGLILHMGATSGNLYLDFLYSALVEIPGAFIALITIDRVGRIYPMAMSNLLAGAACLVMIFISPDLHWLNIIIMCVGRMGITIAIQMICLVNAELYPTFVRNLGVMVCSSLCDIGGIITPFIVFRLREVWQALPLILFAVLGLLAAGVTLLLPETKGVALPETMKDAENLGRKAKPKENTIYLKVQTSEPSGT
Procedure: Koepsell and Gorbulev (University of Würzburg, Germany).
Fluorescence quantification was performed in technical duplicates.

[1] = human, OCT2-overexpressing HEK293 cells, pH 7.4, probe (S,S)-ethambutol (2 μM), (S,S)-Ethambutol inhibition [%], 2 μM (S,S)-ethambutol
[2] = human, OCT2-overexpressing HEK293 cells, pH 7.4, probe ASP+ (2 μM), ASP+ inhibition [%], 2 μM ASP+
[3] = human, OCT2-overexpressing HEK293 cells, pH 7.4, probe N-ethyllidocaine (2 μM), N-Ethyllidocaine inhibition [%], 2 μM N-ethyllidocaine
[4] = HEK293, 5 min, read-out: (S)-Zolmitriptan inhibition [%], OCT3, 20 μM inhibitor, 2 μM (S)-zolmitriptan, 5 min
[5] = HEK293, 5 min, read-out: (S,S)-Ethambutol inhibition [%], OCT3, 20 μM inhibitor, 2 μM (S,S)-ethambutol, 5 min
[6] = HEK293, OCT3, 20 μM inhibitor, 2 μM ASP+, 5 min, read-out: ASP+ inhibition [%]
[7] = human, OCT1-overexpressing HEK293 cells, pH 7.4, probe (S,S)-ethambutol (2 μM), (S,S)-Ethambutol inhibition [%], OCT1, 20 μM inhibitor, 2 μM (S,S)-ethambutol, 5 min
[8] = human, OCT1-overexpressing HEK293 cells, pH 7.4, probe ASP+ (2 μM), OCT1, 20 μM inhibitor, 2 μM ASP+, 5 min, mean of three experiments, read-out: ASP+ inhibition [%]
[9] = human, OCT1-overexpressing HEK293 cells, pH 7.4, probe sumatriptan (2 μM), OCT1, 20 μM inhibitor, 2 μM sumatriptan, 5 min, read-out: Sumatriptan inhibition [%]
[10] = 20 μM inhibitor, 2 μM (S)-zolmitriptan, 5 min
[11] = 20 μM inhibitor, 2 μM (S,S)-ethambutol, 5 min
[12] = 20 μM inhibitor, 2 μM ASP+, 5 min
[13] = OCT1, 20 μM inhibitor, 2 μM (S,S)-ethambutol, 5 min
[14] = OCT1, 20 μM inhibitor, 2 μM ASP+, 5 min, mean of three experiments
[15] = OCT1, 20 μM inhibitor, 2 μM sumatriptan, 5 min

Row | inhibition at 5 min, 20 μM (OCT2; [1]) | inhibition at 5 min, 20 μM (OCT2; [2]) | inhibition at 5 min, 20 μM (OCT2; [3]) | inhibition at 20 µM (OCT3; [5]) | inhibition at 20 µM (OCT3; [6]) | inhibition at 5 min, 20 μM (OCT1; [7]) | inhibition at 5 min, 20 μM (OCT1; [8]) | inhibition at 5 min, 20 μM (OCT1; [9]) | (S,S)-Ethambutol inhibition [%] (OCT2; 2 μM (S,S)-ethambutol) | ASP+ inhibition [%] (OCT2; 2 μM ASP+) | N-Ethyllidocaine inhibition [%] (OCT2; 2 μM N-ethyllidocaine) | (S)-Zolmitriptan inhibition [%] (OCT3; [10]) | (S,S)-Ethambutol inhibition [%] (OCT3; [11]) | ASP+ inhibition [%] (OCT3; [12]) | (S,S)-Ethambutol inhibition [%] (OCT1; [13]) | ASP+ inhibition [%] (OCT1; [14]) | Sumatriptan inhibition [%] (OCT1; [15]) | SMILES | also measured
1 | 14.4% | 50.1% | 25.1% | 11.1% | 27.8% | 25.6% | 3.9% | 42.1% | – | – | – | – | – | – | – | – | – | CC(C)(C)NC[C@H](O)COc1nsnc1N1CCOCC1 [(S)-Timolol] | IC50 (OCT2): 60.2 µM; inhibition at 20 µM (OCT3; [4]): 16.8%
2 | – | – | – | – | – | – | – | – | 26.3% | 64.3% | -17.1% | 33.8% | 35.8% | 7.4% | 86.5% | 51.7% | 88.2% | CN(C)CCO[C@@](C)(c1ccccc1)c1ccccn1 [(S)-Doxylamine] | IC50 (OCT1; OCT1, Table S5, 5 min): 32.2 µM; selectivity ratio at 5 min (OCT1; human, OCT1-overexpressing HEK293 cells, pH 7.4, OCT1, Table S5, ratio of the IC50 values of both isomers, label = isomer named in the cell (as a rule the one with the higher IC50), read-out: Stereoselectivity (x-fold for the named isomer)): 1.4
3 | – | – | – | – | – | – | – | – | – | 26.0% | 6.8% | -8.0% | – | 2.6% | – | 4.0% | 10.2% | CCC(CO)NCCNC(CC)CO [(R,S)-Ethambutol] | –

Second part, the compound before the results:

Row | SMILES | inhibition at 5 min, 20 μM (OCT2; [1]) | inhibition at 5 min, 20 μM (OCT2; [2]) | inhibition at 5 min, 20 μM (OCT2; [3]) | inhibition at 20 µM (OCT3; [5]) | inhibition at 20 µM (OCT3; [6]) | inhibition at 5 min, 20 μM (OCT1; [7]) | inhibition at 5 min, 20 μM (OCT1; [8]) | inhibition at 5 min, 20 μM (OCT1; [9]) | (S,S)-Ethambutol inhibition [%] (OCT2; 2 μM (S,S)-ethambutol) | ASP+ inhibition [%] (OCT2; 2 μM ASP+) | N-Ethyllidocaine inhibition [%] (OCT2; 2 μM N-ethyllidocaine) | (S)-Zolmitriptan inhibition [%] (OCT3; [10]) | (S,S)-Ethambutol inhibition [%] (OCT3; [11]) | ASP+ inhibition [%] (OCT3; [12]) | (S,S)-Ethambutol inhibition [%] (OCT1; [13]) | ASP+ inhibition [%] (OCT1; [14]) | Sumatriptan inhibition [%] (OCT1; [15]) | also measured
4 | CC(C)NC[C@@H](O)COc1cccc2ccccc12 [(R)-Propranolol] | 25% | 47.8% | 20% | – | – | 79.9% | 44.8% | 84.3% | – | – | – | – | – | – | – | – | – | IC50 (OCT3; OCT3, Table 1, read-out: IC50): 195 µM
5 | O=C(OC1C[N+]2(CCCOc3ccccc3)CCC1CC2)C(O)(c1cccs1)c1cccs1 [(S)-Aclidinium] | – | – | – | – | – | – | – | – | 2.7% | 101.8% | 57.3% | 53.3% | 67.7% | 37.7% | 101.4% | 78.8% | 93.8% | –
6 | NC[C@H](O)c1ccc(O)c(O)c1 [(R)-Norepinephrine] | – | 23.1% | 5.4% | – | – | – | – | – | -1.8% | – | – | -4.3% | 5.7% | 8.4% | -19.9% | -4.8% | -1.3% | –
7 | CN(C)CCO[C@](C)(c1ccccc1)c1ccccn1 [(R)-Doxylamine] | 26.2% | 73.2% | – | 23.4% | 12.2% | 96% | 63.6% | 90.8% | – | – | -13.8% | – | – | – | – | – | – | inhibition at 20 µM (OCT3; [4]): 17.7%; IC50 (OCT1; OCT1, Table S5, 5 min): 22.3 µM
8 | COc1ccc([C@@H](CN(C)C)C2(O)CCCCC2)cc1 [(S)-Venlafaxine] | – | – | – | – | -11.4% | – | – | – | – | 21.8% | 13.4% | – | – | – | – | – | – | inhibition at 20 µM (OCT3; HEK293, 5 min, read-out: (S)-Zolmitriptan inhibition [%]): 21%; inhibition at 20 µM (OCT3; HEK293, 5 min, read-out: (S,S)-Ethambutol inhibition [%]): 4.6%; Sumatriptan inhibition [%] (OCT1; human, pH 7.4): 66.9%
9 | OC[C@H](O)CN1CCN(c2ccccc2)CC1 [(R)-Dropropizine] | 28% | 40.8% | 8% | 5.8% | 26.4% | 30.1% | 26.2% | 41% | – | – | – | -30.2% | – | – | – | – | – | IC50 (OCT2): 80.6 µM; selectivity ratio at 5 min (OCT2; human, OCT2-overexpressing HEK293 cells, pH 7.4): 1.4
10 | CC(C)(C)NC[C@H](O)c1ccc(O)c(CO)c1 [(R)-Salbutamol] | – | – | – | 19.5% | – | 12.2% | 5.3% | – | -0.3% | 12.8% | -15.0% | -6.4% | – | 10.3% | – | – | -18.8% | –
